Consider 17 molecules from ChEMBL document CHEMBL3714742, “Pyrimido (4,5-b) indole derivatives” (2003).

By IC50 is commonly meant the concentration needed to halve the response being measured.

Experiment [1] has as its target T1, Dual specificity mitogen-activated protein kinase kinase 7 (Homo sapiens, UniProt O14733).
T1 sequence (O14733 whole entry): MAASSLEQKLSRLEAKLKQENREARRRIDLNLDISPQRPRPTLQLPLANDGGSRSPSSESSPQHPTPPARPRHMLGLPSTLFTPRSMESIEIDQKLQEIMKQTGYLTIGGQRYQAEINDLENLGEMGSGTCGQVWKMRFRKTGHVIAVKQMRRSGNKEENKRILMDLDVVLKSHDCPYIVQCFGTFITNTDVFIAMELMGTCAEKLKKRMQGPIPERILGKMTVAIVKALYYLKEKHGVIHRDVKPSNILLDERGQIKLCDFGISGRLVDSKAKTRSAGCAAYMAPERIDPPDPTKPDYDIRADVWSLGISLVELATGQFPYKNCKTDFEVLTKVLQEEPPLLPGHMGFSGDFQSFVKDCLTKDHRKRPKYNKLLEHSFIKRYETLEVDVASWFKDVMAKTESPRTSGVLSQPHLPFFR
Briefly: Inhibition of GST-tagged human MKK7 expressed in Escherichia coli (BL21(DE3) pLysS) co-expressing human MEKK catalytic domain using biotinylated and GST-tagged rat GST-KN-SAPKalpha substrate incubated for 1 hr by time-resolved fluorescence based assay.

The subject of experiment [2] is Mus musculus. As to the kind of experiment: Inhibition of anti-CD3 antibody-induced IL4 production in Balb/c mouse dosed intravenously 5 mins before anti-CD3 antibody injection and measured 2 hrs post-challenge by ELISA. In kind it is functional, organism-based. Background: In an ELISA, binding on a coated surface is turned into a signal by an enzyme label.
The test system of experiment [3] is Mus musculus. Briefly: Inhibition of anti-CD3 antibody-induced IL2 production in Balb/c mouse dosed intravenously 5 mins before anti-CD3 antibody injection and measured 2 hrs post-challenge by ELISA. Type of experiment: functional, organism-based.
The test system of experiment [4] is Mus musculus. As to the kind of experiment: Inhibition of anti-CD3 antibody-induced IFNgamma production in Balb/c mouse dosed intravenously 5 mins before anti-CD3 antibody injection and measured 2 hrs post-challenge by ELISA. Type of experiment: functional, organism-based.

SMILES strings stand for the structures. Calls of active or inactive are those of the source. No rule for the calls is given here. Some results are limits rather than exact numbers.

With `CC(C)N(C)c1ncnc2[nH]c3ccc(O)cc3c12`, in experiment [1], the IC50 was less than 1000 nM. Also, the inhibition entry in experiment [2], in experiment [3] and in experiment [4] was “Active” each time.
Regarding `C[C@@H](CO)Nc1ncnc2[nH]c3ccc(O)cc3c12`, the IC50 in experiment [1] was less than 1000 nM. The inhibition result in experiment [2], in experiment [3] and in experiment [4] was “Active” throughout.
`Nc1nc(NC2CCCCC2)c2c(n1)[nH]c1ccc(O)cc12` had an IC50 in experiment [1] of less than 1000 nM. The inhibition entry in experiment [2], in experiment [3] and in experiment [4] was “Active” throughout.
Regarding `O=C(O)CCCCCN1CCN(c2ncnc3[nH]c4ccc(O)cc4c23)CC1`, in experiment [1], the IC50 is 1000 nM. Moreover, the inhibition result in experiment [2], in experiment [3] and in experiment [4] was “Active” throughout.
The molecule `CC(O)CNc1ncnc2[nH]c3ccc(O)cc3c12` (stereo not drawn) came in with an IC50 in experiment [1] of less than 1000 nM. The inhibition entry in experiment [2], in experiment [3] and in experiment [4] was “Active” throughout.
For the molecule `Nc1nc(NC2CCCC2)c2c(n1)[nH]c1ccc(O)cc12`, the IC50 in experiment [1] is less than 1000 nM. For the same molecule, the inhibition result in experiment [2], in experiment [3] and in experiment [4] was “Active” throughout.
For `NC(=O)c1ccc2[nH]c3ncnc(NC4CCCC4)c3c2c1`, the IC50 in experiment [1] was less than 1000 nM. Further, the inhibition entry in experiment [2], in experiment [3] and in experiment [4] was “Active” each time.
For `OCCCCN1CCN(c2ncnc3[nH]c4ccc(O)cc4c23)CC1`, in experiment [1], the IC50 was less than 1000 nM. For the same molecule, the inhibition result in experiment [2], in experiment [3] and in experiment [4] was “Active” in each case.
In turn, `Oc1ccc2[nH]c3ncnc(N4CCC[C@@H](O)C4)c3c2c1` came in with an IC50 in experiment [1] of less than 1000 nM. Besides, the inhibition result in experiment [2], in experiment [3] and in experiment [4] was “Active” in each case.
`O=CN1CCN(c2ncnc3[nH]c4ccc(O)cc4c23)CC1` registered an IC50 in experiment [1] of less than 1000 nM. The inhibition entry in experiment [2], in experiment [3] and in experiment [4] was “Active” throughout.
With `NC(=O)c1ccc2[nH]c3ncnc(N4CCCCCC4)c3c2c1`, the IC50 in experiment [1] is less than 1000 nM. Further, the inhibition result in experiment [2], in experiment [3] and in experiment [4] was “Active” in each case.
Consider `Oc1ccc2[nH]c3ncnc(N4CCC(O)CC4)c3c2c1`, for which the IC50 in experiment [1] was less than 1000 nM. The inhibition result in experiment [2], in experiment [3] and in experiment [4] was “Active” each time.
For the molecule `NCCNc1ncnc2[nH]c3ccc(C(N)=O)cc3c12`, the IC50 in experiment [1] is less than 1000 nM. The inhibition result in experiment [2], in experiment [3] and in experiment [4] was “Active” in each case.
`CCN(CCO)c1ncnc2[nH]c3ccc(O)cc3c12` came in with an IC50 in experiment [1] of less than 1000 nM. In addition, the inhibition entry in experiment [2], in experiment [3] and in experiment [4] was “Active” in each case.
Take `CN(CCO)c1nc(N)nc2[nH]c3ccc(O)cc3c12`: the IC50 in experiment [1] is less than 1000 nM. Also, the inhibition entry in experiment [2], in experiment [3] and in experiment [4] was “Active” throughout.
As to `Cc1nc(N2CCOCC2)c2c(n1)[nH]c1ccc(O)cc12`, the IC50 in experiment [1] turned out to be 1000 nM. Moreover, the inhibition result in experiment [2], in experiment [3] and in experiment [4] was “Active” in each case.
The molecule `Nc1nc(NC2CCCCCC2)c2c(n1)[nH]c1ccc(O)cc12` displayed an IC50 in experiment [1] of less than 1000 nM. Besides, the inhibition result in experiment [2], in experiment [3] and in experiment [4] was “Active” in each case.
